Key:
[1] = system: Human immunodeficiency virus 1; assay: Antiviral activity against HIV1 IIIB harboring K103 N mutant infected in MT4 cells assessed as reduction in virus induced cytopathic effect incubated for 5 days by MTT method; assay type: functional, organism-based; details: Human immunodeficiency virus 1, IIIB, MT4, 120 h
[2] = system: Human immunodeficiency virus 1; assay: Antiviral activity against HIV1 IIIB harboring F227L/V106A double mutant infected in MT4 cells assessed as reduction in virus induced cytopathic effect incubated for 5 days by MTT method; assay type: functional, organism-based; details: Human immunodeficiency virus 1, IIIB, MT4, 120 h
[3] = system: Human immunodeficiency virus 1; assay: Antiviral activity against HIV1 IIIB harboring E138K mutant infected in MT4 cells assessed as reduction in virus induced cytopathic effect incubated for 5 days by MTT method; assay type: functional, organism-based; details: Human immunodeficiency virus 1, IIIB, MT4, 120 h
[4] = system: Human immunodeficiency virus 1; assay: Antiviral activity against HIV1 IIIB harboring L100I mutant infected in MT4 cells assessed as reduction in virus induced cytopathic effect incubated for 5 days by MTT method; assay type: functional, organism-based; details: Human immunodeficiency virus 1, IIIB, MT4, 120 h
[5] = system: Human immunodeficiency virus 1; assay: Antiviral activity against HIV1 IIIB infected in MT4 cells assessed as reduction in virus induced cytopathic effect incubated for 5 days by MTT method; assay type: functional, organism-based; details: Human immunodeficiency virus 1, IIIB, MT4, 120 h
[6] = system: Human immunodeficiency virus 1; assay: Antiviral activity against HIV1 IIIB harboring Y188L mutant infected in MT4 cells assessed as reduction in virus induced cytopathic effect incubated for 5 days by MTT method; assay type: functional, organism-based; details: Human immunodeficiency virus 1, IIIB, MT4, 120 h
[7] = system: Human immunodeficiency virus 1; assay: Antiviral activity against HIV1 IIIB harboring RES056 mutant infected in MT4 cells assessed as reduction in virus induced cytopathic effect incubated for 5 days by MTT method; assay type: functional, organism-based; details: Human immunodeficiency virus 1, IIIB, MT4, 120 h
[8] = Selectivity index, ratio of CC50 for human MT4 cells to EC50 for antiviral activity against HIV1 IIIB infected in MT4 cells; assay type: toxicity, cell-based; details: read-out: Ratio CC50/EC50
[9] = system: Human immunodeficiency virus 1; assay: Antiviral activity against HIV1 IIIB harboring Y181C mutant infected in MT4 cells assessed as reduction in virus induced cytopathic effect incubated for 5 days by MTT method; assay type: functional, organism-based; details: Human immunodeficiency virus 1, IIIB, MT4, 120 h
[10] = Cytotoxicity against human MT4 cells assessed as reduction in cell viability incubated for 5 days by MTT method; assay type: toxicity, cell-based; details: time 5 day
[11] = target: Human immunodeficiency virus type 1 reverse transcriptase (Human immunodeficiency virus 1) (UniProt Q72547); assay: Inhibition of HIV-1 reverse transcriptase incubated for 2 hrs in presence of template and viral nucleotides by ELISA relative to control; design: concentration or dose not given beside the values; details: concentration not given here

| SMILES | EC50 [1] [nM] | EC50 [2] [nM] | EC50 [3] [nM] | EC50 [4] [nM] | EC50 [5] [nM] | EC50 [6] [nM] | EC50 [7] [nM] | selectivity ratio [8] | EC50 [9] [nM] | CC50 at 120 h [10] [nM] | inhibition [11] [%] |
| --- | --- | --- | --- | --- | --- | --- | --- | --- | --- | --- | --- |
| Cc1cc(/C=C/C#N)cc(C)c1Oc1nc(NC2CCN(Cc3cn(CC(=O)NC4CC4)nn3)CC2)nc2ccccc12 | 9 | 546 | 29 | 19 | 5 | 58 | 232 | 4150 | 41 | 22400 |  |
| Cc1cc(/C=C/C#N)cc(C)c1Oc1nc(NC2CCN(Cc3cn(CC(=O)NC4CC4)nn3)CC2)nc2ccsc12 |  | 159 | 26 | 17 | 6 | 88 | 191 | 2940 | 23 | 18200 |  |
| Cc1cc(/C=C/C#N)cc(C)c1Oc1nc(NC2CCN(Cc3cn(CC(=O)NC4CC4)nn3)CC2)nc2c1COC2 | 8 | 275 | 15 | 16 | 5 | 114 | 304 | 22800 | 33 | 118000 |  |
| Cc1cc(C#N)cc(C)c1Oc1nc(Nc2ccc(C#N)cc2)nc(N)c1Br [ETRAVIRINE] | 3 |  | 4 | 7 |  |  | 38 | > 1090 | 12 | > 4600 | 52.3 |
| CCNC(=O)Cn1cc(CN2CCC(Nc3nc4c(c(Oc5c(C)cc(/C=C/C#N)cc5C)n3)COC4)CC2)nn1 | 6 | 259 | 22 | 13 | 4 | 175 | 512 | 33200 | 20 | 120000 |  |
| Cc1cc(C#N)cc(C)c1Oc1ccnc(NCCc2cn(Cc3ccc(Cl)cc3)nn2)n1 |  |  |  |  |  |  |  |  |  |  | 51.3 |
| Cc1cc(/C=C/C#N)cc(C)c1Oc1nc(NC2CCN(Cc3cn(CC(N)=O)nn3)CC2)nc2ccccc12 | 8 | 499 | 23 | 17 | 6 | 81 | 187 | 3300 | 33 | 18100 |  |
| COC(=O)Cn1cc(CCNc2nccc(Oc3c(C)cc(/C=C/C#N)cc3C)n2)nn1 |  |  |  |  |  |  |  |  |  |  | 65.3 |
| CCNC(=O)Cn1cc(CN2CCC(Nc3nc(Oc4c(C)cc(/C=C/C#N)cc4C)c4ccccc4n3)CC2)nn1 | 10 | 927 | 36 | 18 | 5 | 60 | 241 | 4230 | 33 | 23700 |  |
| Cc1cc(C#N)cc(C)c1Oc1ccnc(NC2CCN(Cc3cn(Cc4ccc(S(N)(=O)=O)cc4)nn3)CC2)n1 |  |  |  |  |  |  |  |  |  |  | 89.3 |
| Cc1cc(/C=C/C#N)cc(C)c1Oc1nc(NC2CCN(Cc3cn(CC(=O)NC4CCOCC4)nn3)CC2)nc2c1COC2 | 16 | 687 | 25 | 21 | 11 | 159 | 385 | 10400 | 38 | 112000 |  |
| Cc1cc(/C=C/C#N)cc(C)c1Oc1nc(NC2CCN(Cc3cn(CC(N)=O)nn3)CC2)nc2c1COC2 | 32 | 268 | 31 | 37 | 13 | 419 | 2460 | 9570 | 57 | 125000 |  |
| CNC(=O)Cn1cc(CN2CCC(Nc3nccc(Oc4c(C)cc(/C=C/C#N)cc4C)n3)CC2)nn1 | 2 | 209 | 10 | 10 | 1 | 551 | 262 | 19600 | 11 | 23500 |  |
| CCNC(=O)Cn1cc(CN2CCC(Nc3nccc(Oc4c(C)cc(/C=C/C#N)cc4C)n3)CC2)nn1 | 2 | 164 | 11 | 7 | 1 | 406 | 215 | 14800 | 7 | 20700 |  |
| O=C1Nc2ccc(Cl)cc2[C@@](C#CC2CC2)(C(F)(F)F)O1 [EFAVIRENZ] |  |  |  |  |  |  |  |  |  | > 6350 |  |
| CCNC(=O)Cn1cc(CN2CCC(Nc3nc(Oc4c(C)cc(/C=C/C#N)cc4C)c4sccc4n3)CC2)nn1 | 6 | 168 | 33 | 12 | 5 | 80 | 181 | 3640 | 25 | 17500 |  |
| Cc1ccccc1Cn1cc(CCNc2nccc(Oc3c(C)cc(C#N)cc3C)n2)nn1 |  |  |  |  |  |  |  |  |  |  | 55 |
| CNC(=O)Cn1cc(CN2CCC(Nc3nc4c(c(Oc5c(C)cc(/C=C/C#N)cc5C)n3)COC4)CC2)nn1 | 8 | 945 | 17 | 17 | 4 | 179 | 805 | 31300 | 28 | 119000 |  |
| Cc1cc(/C=C/C#N)cc(C)c1Oc1ccnc(NC2CCN(Cc3cn(CC(N)=O)nn3)CC2)n1 | 3 | 188 | 24 | 30 | 2 | 729 | 547 | 21600 | 21 | 47400 |  |
| Cc1ccnc2c1NC(=O)c1cccnc1N2C1CC1 [NEVIRAPINE] |  |  |  |  | 151 |  | > 15000 |  |  | > 15000 |  |
| CNC(=O)Cn1cc(CN2CCC(Nc3nc(Oc4c(C)cc(/C=C/C#N)cc4C)c4sccc4n3)CC2)nn1 | 5 | 66 | 14 | 6 | 4 | 44 | 99 | 4720 | 16 | 18400 |  |
| Cc1cc(/C=C/C#N)cc(C)c1Oc1ccnc(NC2CCN(Cc3cn(CC(=O)NC4CCOCC4)nn3)CC2)n1 | 5 | 232 | 34 | 19 | 4 | 522 | 190 | 4560 | 22 | 19200 |  |
| Cc1cc(/C=C/C#N)cc(C)c1Oc1nc(NC2CCN(Cc3cn(CC(=O)NC4CCOCC4)nn3)CC2)nc2ccccc12 | 14 | 645 | 27 | 15 | 8 | 55 | 161 | 2300 | 31 | 18400 |  |
| Cc1cc(C#N)cc(C)c1Oc1ccnc(NC2CCN(Cc3cn(CC(=O)Nc4ccc(S(C)(=O)=O)cc4)nn3)CC2)n1 | 16 | 2880 | 31 | 228 | 5 | 260 | 3410 | 2690 | 34 | 12200 | 93.8 |
| Cc1cc(C#N)cc(C)c1Oc1ccnc(NC2CCN(Cc3cn(Cc4ccccc4C#N)nn3)CC2)n1 | 15 | 1040 | 27 | 231 | 2 | 366 | > 4240 | 2020 | 27 | 4240 | 91.3 |
| Cc1cc(/C=C/C#N)cc(C)c1Oc1ccnc(NCCc2cn(Cc3ccc(S(N)(=O)=O)cc3)nn2)n1 |  |  |  |  |  |  |  |  |  |  | 69.2 |
| Cc1cc(/C=C/C#N)cc(C)c1Oc1nc(NC2CCN(Cc3cn(CC(N)=O)nn3)CC2)nc2ccsc12 | 8 | 94 | 21 | 18 | 5 | 97 | 240 | 3000 | 32 | 16200 |  |
| Cc1cc(/C=C/C#N)cc(C)c1Oc1nc(NC2CCN(Cc3cn(CC(=O)NC4CCOCC4)nn3)CC2)nc2ccsc12 | 4 | 107 | 20 | 9 | 5 | 40 | 101 | 3060 | 19 | 15600 |  |
| CNC(=O)Cn1cc(CN2CCC(Nc3nc(Oc4c(C)cc(/C=C/C#N)cc4C)c4ccccc4n3)CC2)nn1 |  | 257 | 13 | 8 | 5 | 49 | 139 | 4020 | 18 | 18100 |  |
| Cc1cc(C#N)cc(C)c1Oc1ccnc(NC2CCN(Cc3cn(Cc4ccc(B(O)O)cc4)nn3)CC2)n1 |  |  |  |  |  |  |  |  |  |  | 89.8 |
